Measured values reported in patent US5753710A, “Substituted benzyloxycarbonylguanidines, a process for their preparation, their use as a medicament or diagnostic, and a medicament containing them” (Hoechst Aktiengesellschaft, priority 1995, dated 1998).
Where a name gives a salt, the structure may show the parent alone.

Biological target: T1, Na^+ /H^+ exchanger of rabbit erythrocytes (Oryctolagus cuniculus, UniProt P23791)
T1 construct: endogenous in cells; host or cells: erythrocytes in blood of cholesterol-fed New Zealand White rabbits (Ivanovas)
Assay: Inhibition of the Na^+ /H^+ exchanger of rabbit erythrocytes (amiloride-sensitive Na^+ influx, flame photometry)
Format: cell-based, rabbit (New Zealand White)
Details: erythrocytes of rabbits fed 2% cholesterol diet for six weeks; pH 7.4, 37° C.; hyperosmolar salt/sucrose medium
Source text: Inhibition of the Na^+ /H^+ exchanger of rabbit erythrocytes
New Zealand White rabbits (Ivanovas) received a standard diet containing 2% cholesterol for six weeks in order to activate the Na^+ /H^+ exchange and thus to be able to determine, by flame photometry, the Na^+ influx into the erythrocytes via Na^+ /H^+ exchange. The blood was removed from the aural arteries and rendered incoagulable using 25 IU of potassium heparin. A part of each sample was used for the duplicate determination of the hematocrit by means of centrifugation. Aliquots of in each case 100 μl were used for measuring the initial Na^+ content of the erythrocytes.
In order to determine the amiloride-sensitive sodium influx, 100 μl of each blood sample were in each case incubated, at pH 7.4 and 37° C., in 5 ml of a hyperosmolar salt/sucrose medium (mmol/l: 140 NaCl, 3 KCl, 150 sucrose, 0.1 ouabain, 20 tris(hydroxymethyl)aminomethane). […] The intracellular sodium content was determined by flame photometry.
The net influx of Na^+ was calculated from the difference between the initial sodium values and the sodium content of the erythrocytes following incubation. The amiloride-inhibitable sodium influx was calculated from the difference in the sodium content of the erythrocytes following incubation with and without amiloride 3×10^-4 mol/l. […]

T1 sequence (P23791 whole entry): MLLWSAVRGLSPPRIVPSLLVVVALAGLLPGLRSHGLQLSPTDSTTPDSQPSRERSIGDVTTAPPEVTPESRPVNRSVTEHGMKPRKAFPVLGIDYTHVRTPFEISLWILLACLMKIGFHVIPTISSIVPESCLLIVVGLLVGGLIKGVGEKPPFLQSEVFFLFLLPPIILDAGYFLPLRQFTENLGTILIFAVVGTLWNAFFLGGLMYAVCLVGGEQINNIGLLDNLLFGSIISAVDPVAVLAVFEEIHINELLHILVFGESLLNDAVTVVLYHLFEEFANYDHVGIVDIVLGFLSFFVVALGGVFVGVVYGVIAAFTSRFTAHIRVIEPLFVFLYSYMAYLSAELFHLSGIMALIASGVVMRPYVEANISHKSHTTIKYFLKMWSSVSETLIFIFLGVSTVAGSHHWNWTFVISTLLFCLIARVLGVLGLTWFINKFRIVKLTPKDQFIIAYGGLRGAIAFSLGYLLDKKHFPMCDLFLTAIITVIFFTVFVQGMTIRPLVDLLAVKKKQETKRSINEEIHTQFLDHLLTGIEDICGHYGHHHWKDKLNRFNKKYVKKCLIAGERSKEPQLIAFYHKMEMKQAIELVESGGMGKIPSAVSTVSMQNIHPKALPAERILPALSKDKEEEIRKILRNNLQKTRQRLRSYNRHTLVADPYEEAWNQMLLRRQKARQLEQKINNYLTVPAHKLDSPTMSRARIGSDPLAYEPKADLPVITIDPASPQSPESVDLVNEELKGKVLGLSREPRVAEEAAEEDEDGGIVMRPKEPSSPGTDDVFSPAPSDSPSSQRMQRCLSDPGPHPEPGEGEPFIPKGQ

IC50: < 1 µM
Structure (SMILES): NC(N)=NC(=O)OCc1ccc(Oc2cccnc2)c(C(F)(F)F)c1 [Example 1, 4-(3-Pyridyloxy)-3-trifluoromethyl-benzyloxycarbonylguanidine, dihydrochloride]
